Experiments:
[1] = Solubilization of particles from oxidative PS20 degradation (HIAC); format: physicochemical; settings: 5% and 15% (w/v) HP-β-CD; 0.02% (w/v) PS20 stored 27 months at 5° C.
Protocol: Subvisible particles were measured using a HIAC 9703 particle counter equipped with an HRDL-150 detector and a 1 mL syringe. Performance of the instrument was verified with NIST-traceable 2 μm Polystyrene bead standards at 3000 counts/mL before each measurement session. The HIAC instrument was configured to a 10 mL/min flow rate, 0.1 mL tare volume, and 0.4 mL sample volume. The samples were analyzed using 4 runs of 0.4 mL sips, with the first run of each sample was discarded to prevent measurement error due to sample carryover. Results were reported as the average values for 1.4, 2, 5, 10, 15, and 25, 50 μm analysis filter sizes.
Different concentrations of HP-β-CD were tested for their ability to solubilize particles produced as a result of oxidative PS20 degradation. Solutions of concentrated HP-β-CD were prepared in triplicate in pH 5.5 buffer. Protein-free samples containing 0.02% (w/v) PS20 were stored for 27 months at 5° C., resulting in oxidative PS20 degradation and the formation of visible and subvisible particles related to PS20 degradation products. Each degraded PS20 solution was divided into 3 aliquots and concentrated excipient was spiked into each the aliquots. […] The following day, subvisible particle counts were measured using a HIAC 9703 particle counter.

[2] = test system: Lipoprotein Lipase (LPL); assay: Enzymatic degradation of PS20 by LPL, PS20 by RP-ELSD; format: biochemical, Burkholderia sp.; settings: 15% w/v HP-β-CD; 0.02% PS20, pH 5.5; 70 μg/mL LPL, 5 hours, room temperature
Protocol: Polysorbate concentration was determined using reverse phase ultra-performance liquid chromatography using evaporative light scattering detection (RP-ELSD). Samples were analyzed using an Agilent 1100 series high performance liquid chromatography system (HPLC) fitted with a Waters Oasis MAX cartridge column (20×2.1 mm, 30 μm particle size). The HPLC system was set up with a switching valve directing column flow-through to either waste or a Varian 380-LC evaporative light scattering detector set to 100° C. The mobile phases consisted of 2% formic acid in water (Pump A) and 2% formic acid in isopropanol (Pump B). […] In order to quantitate the PS20 concentration, a standard curve was generated by injecting 20 μL of solutions containing between 0% w/v and 0.4% w/v PS20. For excipients which affected the migration time of PS20 through the column, PS20 standard curve solutions containing the relevant excipient were included in the analysis to facilitate accurate quantitation.
The effect of 15% HP-β-CD on the enzymatic degradation of PS20 was measured. […]
PPL digestion was stopped by heat inactivation in an 85° C. water bath for 30 minutes. LPL and RLE digestion could not be stopped by heat inactivation, so the samples were analyzed immediately for PS20 content. […]

## 2-hydroxypropyl-β-cyclodextrin [HP-β-CD]
[1]
  SVP relative to control sample (0% HP-β-CD): significant reduction in SVP
[2]
  Polysorbate 20 (Relative %): 77.5%

Reference: patent US10933141B2, “Formulations with reduced degradation of polysorbate” (Genentech, Inc., priority 2015, dated 2021)
